# Experiments:
# Format in all cases: biochemical
# [1] = molecular target: T1, PARLΔ77 (Homo sapiens, UniProt Q9H300); test: IQ-peptide substrate cleavage kinetics, β-cleavage PARLΔ77 in detergent; details: PARLΔ77 0.8 μM in 0.1% DDM with CL, 50 mM Tris-HCl pH 7.0, 150 mM NaCl, 10% glycerol, 5% DMSO, 37 °C, fluorescence; mean ± SEM
# T1 construct: GFP-hexahistidine (behind a TEV cleavage site) (C, cleaved yes); made in house; host or cells: Pichia pastoris
# T1 sequence (Q9H300 78-379): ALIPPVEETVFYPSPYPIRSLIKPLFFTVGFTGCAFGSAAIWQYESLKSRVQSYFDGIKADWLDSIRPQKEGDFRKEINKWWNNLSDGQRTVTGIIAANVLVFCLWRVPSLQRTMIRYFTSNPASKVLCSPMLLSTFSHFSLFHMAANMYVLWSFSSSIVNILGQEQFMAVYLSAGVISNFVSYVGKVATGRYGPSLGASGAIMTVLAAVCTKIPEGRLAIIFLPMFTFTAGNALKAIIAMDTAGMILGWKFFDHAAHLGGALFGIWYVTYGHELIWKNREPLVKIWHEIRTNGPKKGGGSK
# Source text: (§1) To further evaluate the cleavage of other known substrates of PARL, we adopted a more facile system to examine cleavage of multiple substrates and generated internally quenched (IQ) peptide substrates ([25], [36], [37], [38]) based on the amino acids flanking the PARL cleavage sites of PINK1 ([39]), PGAM5 ([8]), and Smac/Diablo ([11]). […] The assay allowed us to determine the catalytic parameters for the three primary PARL substrates and examine the substrate specificity (Fig. 2, Tables S2–S4).
# (§2) Assays with FRET-PINK1^70–134 were conducted as previously described ([26]). For EDANS/Dabcyl 10-mer IQ peptides (PINK1, PGAM5, Smac/Diablo), lyophilized peptides were initially dissolved in DMSO to obtain a stock solution. The IQ peptide substrates in a concentration range of 0.1–70 μM were incubated with activity assay buffer (50 mM Tris-HCl pH 7.0, 150 mM NaCl, 10% glycerol, 0.1% DDM) in a 384-well black-bottomed plate at 37 °C for 30 min in a multiwell plate reader (SynergyMx, BioTek). For all concentrations of IQ peptide, the DMSO was kept constant at 5%. Following preincubation, PARL was added to a final concentration of 0.8 μM to initiate the cleavage reaction. Fluorescence readings were taken every 3 min over a 3 h time course at ƛex = 336 nm and ƛem = 490 nm. The initial velocity was determined from the fluorescence readings over the time course. For each substrate concentration, a no-enzyme control was subtracted to eliminate background fluorescence changes not related to substrate cleavage. Relative fluorescence units were converted to concentration (μM) by determining the maximum change in fluorescence observed for each substrate concentration when fully digested. GraphPad Prism software was used for Michaelis–Menten analysis of kinetic curves. All kinetic data were obtained using at least three biological replicates (different enzyme preparations) with technical duplicates for each experiment. For kinetic measurements in detergent with all three substrates, the activity assays were repeated at least five times. In addition, after each protease purification, the quality control of purified PARL was controlled by measuring its enzymatic activity. Minimum of three experimental replicates with two technical replicates were used for data analysis.
# [2] = test system: human PARLΔ77; test: as above; details: for fold change Km/kcat, PARLΔ77/PARLΔ55 / fold change kcat, PARLΔ77/PARLΔ55: PARL in DDM; for turnover rate with PARLΔ77 compared with PARLΔ55 / ranking of substrate cleavage: in detergent; for ranking of substrate cleavage: PARLΔ55 and PARLΔ77, by kcat or kcat/KM
# Source text: as §1, §2
# [3] = test system: human PARLΔ77; test: IQ-peptide substrate cleavage kinetics, PARLΔ77 in proteoliposomes; details: for fold change Km/kcat, PARLΔ77/PARLΔ55 / fold change kcat, PARLΔ77/PARLΔ55: PARL in PLs; for turnover / proteolysis with PARLΔ77 compared with PARLΔ55: in PL
# Source text: To assess the activity of recombinant PARL toward known substrates in a lipid bilayer, full-length and β-truncated PARL were reconstituted in proteoliposomes (PLs) using Escherichia coli lipids that closely resemble the composition of the IMM ([31]). We determined that the EDANS/Dabcyl - FRET tags prevented incorporation of the substrates into PL; however, the substrate could still be cleaved since the active site is proposed to be near the lipid/water interface ([40], [41]) analogous to bacterial rhomboid proteases (Fig. 1). To calculate the specific activity of the protease, we quantified the fraction of PARL in the PLs with an outward facing active site using a membrane […] activity-based TAMRA-labeled fluorophosphonate probe ([42]). […] These values were used to calculate specific activity of the PARL protease. Next, we compared cleavage of three IQ-peptide substrates by reconstituted full-length mature PARLΔ55 and the β-truncated form, PARLΔ77 (Fig. 3, Tables S5 and S6).
# as §2
# E. coli polar lipids (Avanti), 400 μg in chloroform, were dried under nitrogen stream in a glass tube to yield a thin film of lipid. The tube was incubated overnight in a desiccator to completely remove all traces of solvent. In total, 50 μl of water and DDM detergent was added to the lipid film for resuspension at room temperature for 10 min, followed by the addition of purified PARL (400 μg) in 50 mM Tris-HCl, pH 8.0, 150 mM NaCl, 20% glycerol, 0.1% DDM, to yield the final weight ratio of 1 PARL:1 lipid:2 detergent. The detergent was slowly removed by the addition of SM2 Biobeads (Bio-Rad) while stirring on ice for 6 h to allow for the generation of proteoliposomes (PL); the process was controlled by the regimen of Biobead addition. To purify the PL, 50%:20% sucrose density gradient ultracentrifugation was used. A TAMRA probe (ThermoFisher) was used to determine the orientation of reconstituted PARL, which specifically and covalently labels serine residues of an enzymatically active serine protease. In total, 2 μM of TAMRA probe was added to PL samples and incubated for 1 h, allowing the TAMRA probe to label only the outward-facing accessible active sites. […]
# [4] = molecular target: T1, PARLΔ77; test: as above; details: PARLΔ77 in PLs (E. coli polar lipids), 50 mM Tris-HCl pH 7.0, 150 mM NaCl, 10% glycerol, no DDM, 37 °C, mean ± SEM
Substance,Km [1] [µM],kcat (turnover rate) [1] [s⁻¹],kcat/KM (catalytic efficiency) [1] [M⁻¹ s⁻¹],"fold change Km/kcat, PARLΔ77/PARLΔ55 [2] [fold]","fold change kcat, PARLΔ77/PARLΔ55 [2] [fold]",turnover rate with PARLΔ77 compared with PARLΔ55 [2],"fold change Km/kcat, PARLΔ77/PARLΔ55 [3] [fold]","fold change kcat, PARLΔ77/PARLΔ55 [3] [fold]",Km [4] [µM],kcat (turnover rate) [4] [s⁻¹],kcat/KM (catalytic efficiency) [4] [M⁻¹ s⁻¹],ranking of substrate cleavage [2],kcat/KM (catalytic efficiency) ([4]; listed as PGAM5) [M⁻¹ s⁻¹],kcat/KM (catalytic efficiency) ([4]; listed as PGAM520-29) [M⁻¹ s⁻¹],turnover rate with PARLΔ77 compared with PARLΔ55 ([2]; listed as IQ-Smac/Diablo),turnover rate with PARLΔ77 compared with PARLΔ55 ([2]; listed as Smac/Diablo),turnover / proteolysis with PARLΔ77 compared with PARLΔ55 ([3]; listed as IQ-Smac/Diablo),turnover / proteolysis with PARLΔ77 compared with PARLΔ55 ([3]; listed as Smac/Diablo),kcat (turnover rate) ([4]; listed as Smac/Diablo) [s⁻¹],kcat (turnover rate) ([4]; listed as Smac/Diablo51-60) [s⁻¹]
"(DABCYL)-AVFLAFGLGL-Glu(EDANS) [IQ-PINK1^99–108, internally quenched DABCYL/EDANS peptide substrate based on PINK1 PARL cleavage site]",3.3 ± 0.5,0.000361 ± 2.8e-05,110 ± 28,2,3,increased,5,3,8 ± 1,0.00778 ± 0.00056,972 ± 170,–,–,–,–,–,–,–,–,–
"(DABCYL)-AVFLSAVAVG-Glu(EDANS) [IQ-PGAM5^20–29, internally quenched DABCYL/EDANS peptide substrate based on PGAM5 PARL cleavage site]",1.6 ± 0.2,0.000272 ± 1.1e-05,170 ± 28,0.6,2,increased,7,4,0.8 ± 0.2,0.00583 ± 0.00028,–,most efficiently cleaved,7220 ± 2200,7220 ± 2200,–,–,–,–,–,–
"(DABCYL)-GVT LCAVPIA-Glu(EDANS) [IQ-Smac/Diablo^51–60, internally quenched DABCYL/EDANS peptide substrate based on Smac/Diablo PARL cleavage site]",5 ± 1,0.000333 ± 2.8e-05,83 ± 28,1,1,–,2,10,17 ± 4,–,944 ± 280,fastest cleaved,–,–,no significant difference,remained unchanged,increase in proteolysis,significantly enhanced,0.0161 ± 0.0019,0.0161 ± 0.0019

# — PMC7966987, “Insights into the catalytic properties of the mitochondrial rhomboid protease PARL” (The Journal of Biological Chemistry, 2021)
